We go through 16 compounds from patent US8283353B2, “Fused ring compound and use thereof” (Takeda Pharmaceutical Company Limited, priority 2009, dated 2012).

One experiment deals with T1, human PPARγ (Homo sapiens, UniProt P37231).
T1 construct: expressed in transfected cells
T1 sequence (P37231 1-477 isoform P37231-2): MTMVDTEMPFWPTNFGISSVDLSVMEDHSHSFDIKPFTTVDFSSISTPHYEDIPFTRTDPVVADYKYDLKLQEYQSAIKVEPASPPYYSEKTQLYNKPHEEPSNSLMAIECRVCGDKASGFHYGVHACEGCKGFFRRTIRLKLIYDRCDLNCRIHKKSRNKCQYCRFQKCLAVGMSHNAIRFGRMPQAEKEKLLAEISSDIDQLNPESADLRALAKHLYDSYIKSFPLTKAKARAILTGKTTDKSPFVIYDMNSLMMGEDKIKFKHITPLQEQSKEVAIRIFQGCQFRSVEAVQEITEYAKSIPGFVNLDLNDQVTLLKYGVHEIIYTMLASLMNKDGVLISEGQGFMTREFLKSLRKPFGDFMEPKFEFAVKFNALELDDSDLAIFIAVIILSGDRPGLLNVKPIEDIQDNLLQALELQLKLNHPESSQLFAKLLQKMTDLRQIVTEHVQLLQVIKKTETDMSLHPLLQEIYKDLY
T1 sequence (P19793 1-462 partner): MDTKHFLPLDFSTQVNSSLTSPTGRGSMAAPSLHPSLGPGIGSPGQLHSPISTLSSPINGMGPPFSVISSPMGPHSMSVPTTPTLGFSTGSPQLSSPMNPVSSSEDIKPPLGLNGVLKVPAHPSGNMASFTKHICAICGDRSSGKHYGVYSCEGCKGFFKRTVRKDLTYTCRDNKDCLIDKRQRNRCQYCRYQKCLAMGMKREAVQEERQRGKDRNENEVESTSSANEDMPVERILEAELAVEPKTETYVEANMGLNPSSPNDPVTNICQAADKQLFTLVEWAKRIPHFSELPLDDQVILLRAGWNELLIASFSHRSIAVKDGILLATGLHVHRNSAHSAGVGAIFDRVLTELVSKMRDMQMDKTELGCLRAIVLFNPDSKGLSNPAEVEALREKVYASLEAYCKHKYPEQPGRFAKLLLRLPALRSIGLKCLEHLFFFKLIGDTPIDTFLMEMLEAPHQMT
As to the kind of experiment: PPARγ agonistic activity: luciferase reporter assay in PPARγ:RXRα:4ERPP/CHO-K1 cells. The conditions noted are these: CHO-K1, test compound 10^−6 M; luciferase activity of control compound X (1 μM) = 100%, non-administration group = 0%. The experiment is classed as cell-based. The method in brief: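 CHO-K1 cells stably carrying hPPARγ/RXRα and a 4ERPP luciferase reporter, dosed with test compound for 1 day at 37 °C in Ham's F12 with 0.1% fatty acid-free BSA. Luciferase read by luminescence; activity given as % of 1 μM control compound X (100%) versus untreated (0%).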
(A reporter such as luciferase makes a cellular process visible.)

A further experiment deals with T2, human AT1 receptor (Homo sapiens, UniProt P30556).
T2 construct: expressed in transfected cells; membrane fraction
T2 sequence (P30556 1-359): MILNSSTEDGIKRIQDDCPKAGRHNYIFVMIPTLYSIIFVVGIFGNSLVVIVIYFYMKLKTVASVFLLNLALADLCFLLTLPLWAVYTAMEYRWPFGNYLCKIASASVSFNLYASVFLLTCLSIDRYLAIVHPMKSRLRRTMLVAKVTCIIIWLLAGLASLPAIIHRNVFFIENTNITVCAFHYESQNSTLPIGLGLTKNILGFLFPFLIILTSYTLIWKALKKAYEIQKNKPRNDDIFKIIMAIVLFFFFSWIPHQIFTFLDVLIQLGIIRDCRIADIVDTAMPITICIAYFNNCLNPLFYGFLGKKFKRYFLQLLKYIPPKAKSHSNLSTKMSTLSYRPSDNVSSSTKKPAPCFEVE
Put plainly: AT1 receptor antagonistic activity: [125I]-angiotensin II binding assay on human AT1 receptor-expressing CHO-K1 cellular membrane fraction. The conditions noted are these: 22.5 pM [125I]-angiotensin II, 1 hr room temperature. The method, boiled down: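 Competition binding used radiolabelled angiotensin II on stably transfected CHO-K1 membrane fractions in Tris pH 7.4/MgCl2 buffer, optionally containing 0.3 mg/mL fatty acid-free BSA, 1 hr at room temperature. Filtration onto GF/C separated bound tracer, and nonspecific binding was measured with candesartan.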

A word on the IC50: it is the point on the concentration scale where inhibition reaches its midpoint. For the compound `CCCc1c(C(C)c2ccc(-c3ccccc3-c3noc(=O)[nH]3)cc2)c(=O)n([C@H]2CC[C@H](OCC(C)(C)O)CC2)c2ncnn12` (stereo partly drawn) [Example 131, 4-[trans-4-(2-hydroxy-2-methylpropoxy)cyclohexyl]-6-{1-[2′-(5-oxo-4,5-dihydro-1,2,4-oxadiazol-3-yl)biphenyl-4-yl]ethyl}-7-propyl[1,2,4]triazolo[1,5-a]pyrimidin-5(4H)-one], the activation at 1 µM on human PPARγ was 15%. On human AT1 receptor, this compound displayed an IC50 of 2.9 nM.

At human PPARγ, `CCCc1c(Cc2ccc(-c3ccccc3-c3noc(=O)[nH]3)cc2)c(=O)n([C@H]2CC[C@H](c3nnc(C)o3)CC2)c2ncnn12` [Example 173, 4-[trans-4-(5-methyl-1,3,4-oxadiazol-2-yl)cyclohexyl]-6-{[2′-(5-oxo-4,5-dihydro-1,2,4-oxadiazol-3-yl)biphenyl-4-yl]methyl}-7-propyl[1,2,4]triazolo[1,5-a]pyrimidin-5(4H)-one] gave an activation at 1 µM of 28%. Further, at human AT1 receptor, the IC50 was found to be 1.7 nM.

At human PPARγ, `C=CC(O)CO[C@H]1CC[C@H](n2c(=O)c(Cc3ccc(-c4ccccc4-c4noc(=O)[nH]4)cc3)c(CCC)n3ncnc32)CC1` (stereo partly drawn) [Example 331, 4-{trans-4-[(2-hydroxybut-3-en-1-yl)oxy]cyclohexyl}-6-{[2′-(5-oxo-4,5-dihydro-1,2,4-oxadiazol-3-yl)biphenyl-4-yl]methyl}-7-propyl[1,2,4]triazolo[1,5-a]pyrimidin-5(4H)-one] came in with an activation at 1 µM of 33%. For the same compound, the IC50 at human AT1 receptor is 2 nM.

As for `CCCc1c(Cc2ccc(-c3ccccc3-c3noc(=O)[nH]3)cc2)c(=O)n([C@H]2CC[C@H](c3nc(C)no3)CC2)c2ncnn12` [Example 169, 4-[trans-4-(3-methyl-1,2,4-oxadiazol-5-yl)cyclohexyl]-6-{[2′-(5-oxo-4,5-dihydro-1,2,4-oxadiazol-3-yl)biphenyl-4-yl]methyl}-7-propyl[1,2,4]triazolo[1,5-a]pyrimidin-5(4H)-one], the activation at 1 µM at human PPARγ was found to be 54%. On human AT1 receptor, this compound gave an IC50 of 1.4 nM.

`CCCc1c(Cc2ccc(-c3ccccc3-c3noc(=O)[nH]3)cc2)c(=O)n([C@H]2CC[C@H](OCC3(CO)CCC3)CC2)c2ncnn12` [Example 228, 4-(trans-4-{[1-(hydroxymethyl)cyclobutyl]methoxy}cyclohexyl)-6-{[2′-(5-oxo-4,5-dihydro-1,2,4-oxadiazol-3-yl)biphenyl-4-yl]methyl}-7-propyl[1,2,4]triazolo[1,5-a]pyrimidin-5(4H)-one] came in with an activation at 1 µM on human PPARγ of 27%. Also, the IC50 at human AT1 receptor stood at 1.5 nM.

As for `CCCCc1c(Cc2ccc(-c3ccccc3-c3noc(=O)[nH]3)cc2)c(=O)n(C2CCOCC2)c2ncnn12` [Example 125, 7-butyl-6-{[2′-(5-oxo-4,5-dihydro-1,2,4-oxadiazol-3-yl)biphenyl-4-yl]methyl}-4-(tetrahydro-2H-pyran-4-yl)[1,2,4]triazolo[1,5-a]pyrimidin-5(4H)-one], the activation at 1 µM at human PPARγ came to 23%. For the same compound, at human AT1 receptor, the IC50 turned out to be 1.9 nM.

In turn, `CCCc1c(Cc2ccc(-c3ccccc3-c3noc(=O)[nH]3)cc2)c(=O)n(C2CCC2)c2nc(C)nn12` [Example 83, 4-cyclobutyl-2-methyl-6-{[2′-(5-oxo-4,5-dihydro-1,2,4-oxadiazol-3-yl)biphenyl-4-yl]methyl}-7-propyl[1,2,4]triazolo[1,5-a]pyrimidin-5(4H)-one] registered an activation at 1 µM on human PPARγ of 16%. Also, the IC50 on human AT1 receptor amounted to 1.5 nM.

As for `CCCc1c(Cc2ccc(-c3ccccc3-c3noc(=O)[nH]3)cc2)c(=O)n([C@H]2CC[C@H](OCCCO)CC2)c2ncnn12` [Example 186, 4-[trans-4-(3-hydroxypropoxy)cyclohexyl]-6-{[2′-(5-oxo-4,5-dihydro-1,2,4-oxadiazol-3-yl)biphenyl-4-yl]methyl}-7-propyl[1,2,4]triazolo[1,5-a]pyrimidin-5(4H)-one], the activation at 1 µM at human PPARγ is 24%. At human AT1 receptor, this compound showed an IC50 of 2.1 nM.

`CCCc1c(Cc2ccc(-c3ccccc3-c3noc(=O)[nH]3)cc2)c(=O)n([C@H]2CC[C@H](OCC(O)(CC)CC)CC2)c2nc(C)nn12` [Example 197, 4-[trans-4-(2-ethyl-2-hydroxybutoxy)cyclohexyl]-2-methyl-6-{[2′-(5-oxo-4,5-dihydro-1,2,4-oxadiazol-3-yl)biphenyl-4-yl]methyl}-7-propyl[1,2,4]triazolo[1,5-a]pyrimidin-5(4H)-one]: the activation at 1 µM on human PPARγ was determined as 17%. In addition, the IC50 on human AT1 receptor is 2 nM.

In the case of `CCCc1c(Cc2ccc(-c3ccccc3-c3noc(=O)[nH]3)cc2)c(=O)n([C@H]2CC[C@H](OCC(O)C(F)(F)F)CC2)c2ncnn12` (stereo partly drawn) [Example 325, 6-{[2′-(5-oxo-4,5-dihydro-1,2,4-oxadiazol-3-yl)biphenyl-4-yl]methyl}-7-propyl-4-[trans-4-(3,3,3-trifluoro-2-hydroxypropoxy)cyclohexyl][1,2,4]triazolo[1,5-a]pyrimidin-5(4H)-one], at human PPARγ, the activation at 1 µM is 31%. Also, on human AT1 receptor, the IC50 turned out to be 2 nM.

`CCCCc1c(Cc2ccc(-c3ccccc3-c3noc(=O)[nH]3)cc2)c(=O)n([C@H]2CC[C@H](OCC(C)(C)O)CC2)c2ncnn12` [Example 232, 7-butyl-4-[trans-4-(2-hydroxy-2-methylpropoxy)cyclohexyl]-6-{[2′-(5-oxo-4,5-dihydro-1,2,4-oxadiazol-3-yl)biphenyl-4-yl]methyl}[1,2,4]triazolo[1,5-a]pyrimidin-5(4H)-one] had an activation at 1 µM at human PPARγ of 35%. Besides, on human AT1 receptor, the IC50 was determined as 2.1 nM.

Turning to `CCCc1c(Cc2ccc(-c3ccccc3-c3noc(=O)[nH]3)cc2)c(=O)n(C2CCC(C)OC2)c2nc(C)nn12` (centres unmarked) [Example 144, 2-methyl-4-(6-methyltetrahydro-2H-pyran-3-yl)-6-{[2′-(5-oxo-4,5-dihydro-1,2,4-oxadiazol-3-yl)biphenyl-4-yl]methyl}-7-propyl[1,2,4]triazolo[1,5-a]pyrimidin-5(4H)-one], the activation at 1 µM at human PPARγ came to 20%. Also, the IC50 at human AT1 receptor is 1.4 nM.

Consider `CCCc1c(Cc2ccc(-c3ccccc3-c3noc(=O)[nH]3)cc2)c(=O)n(C2CCOCC2)c2ccnn12` [Example 269, 6-{[2′-(5-oxo-4,5-dihydro-1,2,4-oxadiazol-3-yl)biphenyl-4-yl]methyl}-7-propyl-4-(tetrahydro-2H-pyran-4-yl)pyrazolo[1,5-a]pyrimidin-5(4H)-one], for which the activation at 1 µM at human PPARγ came to 16%. Besides, the IC50 on human AT1 receptor stood at 2.2 nM.

For the compound `CCCCc1c(Cc2ccc(-c3ccccc3-c3noc(=O)[nH]3)cc2)c(=O)n(C2CCOC(C)(C)C2)c2nc(C)nn12` (centres unmarked) [Example 137, 7-butyl-4-(2,2-dimethyltetrahydro-2H-pyran-4-yl)-2-methyl-6-{[2′-(5-oxo-4,5-dihydro-1,2,4-oxadiazol-3-yl)biphenyl-4-yl]methyl}[1,2,4]triazolo[1,5-a]pyrimidin-5(4H)-one], on human PPARγ, the activation at 1 µM came to 20%. The compound also had an IC50 on human AT1 receptor of 1.4 nM.

On to `CCCc1c(Cc2ccc(-c3ccccc3-c3noc(=O)[nH]3)cc2)c(=O)n(C2CCCCC2)c2nc(C)nn12` [Example 78, 4-cyclohexyl-2-methyl-6-{[2′-(5-oxo-4,5-dihydro-1,2,4-oxadiazol-3-yl)biphenyl-4-yl]methyl}-7-propyl[1,2,4]triazolo[1,5-a]pyrimidin-5(4H)-one], for which, at human PPARγ, the activation at 1 µM was 21%. The IC50 at human AT1 receptor was found to be 1.8 nM.

In the case of `CCCc1c(Cc2ccc(-c3ccccc3-c3noc(=O)[nH]3)cc2)c(=O)n(CC(C)(C)C)c2nc(C)nn12` [Example 2, 4-(2,2-dimethylpropyl)-2-methyl-6-{[2′-(5-oxo-4,5-dihydro-1,2,4-oxadiazol-3-yl)biphenyl-4-yl]methyl}-7-propyl[1,2,4]triazolo[1,5-a]pyrimidin-5(4H)-one], on human PPARγ, the activation at 1 µM was 18%. Also, the IC50 on human AT1 receptor amounted to 1.3 nM.
